# Data from patent publication US20190010461A1, “HUMAN PLURIPOTENT STEM CELL-BASED SCREENING FOR SMOOTH MUSCLE CELL DIFFERENTIATION AND DISEASE” (Wisconsin Alumni Research Foundation, priority 2017, published 2019).
# How the values were obtained:
# [1] = test system: MYH11 promoter-driven luciferase activity; assay: High-throughput screening, MYH11-Nluc-2A-Tom reporter human ES cell line, luciferase assay; type: cell-based
# Protocol: FIGS. 1A-1C depict a schematic of high-throughput screening. […] The cells were passaged at day 4 and seeded on the 96-well plate for screening (2×10^6 cells/plate). After the reporter cell line was differentiated into mesoderm, small molecules were added to the cells from day 4 to day 14. FIG. 1B depicts the results of the screening in two batches. The luciferase assay results of individual small molecules were normalized to the average reads of all samples for each batch. The small molecules were selected for further analysis when the normalized reads were greater than “average+3×STDEV”. FIG. 1C depicts optimizing the concentration of the selected small molecules.
# The cells were treated with 50 ng/ml FGF2 and 20 ng/ml BMP4 for another two days. The cells were passaged at day 4 and seeded on the 96-well plate for screening (2×10^6 cells/plate). The compounds were added from day 4-14. The Luciferase substrate (1000× dilution) (Nano-Glo Luciferase Assay system, Promega) was added to the medium for 15 min and luminescence was measured. An increase in luminescence indicates increased MYH11 expression, which is an indicator of the contractile smooth muscle cell phenotype. The Thomson custom stem cell Modulator 1, GSK-kinase inhibitor library, SellekChem Kinase inhibitor library, Analyticon NATx library, Prestwick Chemical Library, GlaxoSmithKline Protein Kinase Inhibitors, and part of Enamine Representative Diversity library were used for screening.
# High-throughput screening directs contractile smooth muscle cell differentiation—The construction of the MYH11-NLuc-tdTomato human ES cell reporter line generated by CRISPR/Cas9 technology is described in FIGS. 6A-6H. The reporter cell line was differentiated into mesoderm in E8BAC medium (Zhang et al., 2017) for two days and treated with FGF2 and BMP4 to further mature mesoderm for another two days. The cells were then passaged into a 96-well plate and exposed to small molecules for 10 days using a customized robotic workstation (FIG. 1A). The workstation was designed through collaboration with TECAN, which enables us to perform the automatic high-throughput screening at specific time point and in long-term. The medium were changed every other day and the small molecules were added during the feeding. […] We then validated these hits and optimized their concentration.
# [2] = test system: contractile and ECM genes (MYH11, SMTN, CNN1, ELN, ACTA2, TAGLN, COL1A1); assay: RT-qPCR of pluripotent stem cell-derived SMCs; type: cell-based, human; details: versus previous protocol (Cheung's LM-SMCs)
# From the text: Data are represented as mean±standard deviation (SD). […] Scale bar=1 mm. […] Scale bar=50 μm. […] Data are represented as mean±SD. Student's t-test, *: P<0.05, n=3.
# FIGS. 9A-9B show a comparison of MYH11 expression in RepSox-SMCs and Cheung's LM-SMCs. […] Data are normalized to Cheung's LM-SMCs and represented as mean±SD, n=3 for all the samples except fresh human artery (n=2). *, p<0.05, student t-test.
# Optimized smooth muscle cell differentiation—Human pluripotent stem cell cells (H1) were cultured in E8 medium on a […]™-coated plate. To achieve the best differentiation results, ES cells were split using EDTA at 1:4 ratios two days before the differentiation. The cells reached 80-90% confluency two days later. At the day of the differentiation, ES cells were dissociated by ACCUTASE™ (Invitrogen) for 3-5 min at 37 ° C. The cells were plated on a […]™-coated plate at 1:4 ratios (1×10^5 cells/cm2). […] An increased CHIR99021 concentration of 3 μM decreased cell proliferation at 36 hours but increased MYH11 expression. At 36 hours, the cells were passaged and seeded on a new […]™-coated plate (1.6×10^4 cells/cm2). The low cell density is critical for the differentiation. A cell density of 1.0-4.0×10^4 cells/cm2 for different cell lines can be tested, such that 100% cell confluence will be achieved at day 6, which gives rise to the best differentiation efficiency. […]
# [3] = test system: primary human aortic SMCs (AoSMCs)
# From the text: Scale bar=500 μm. […] Scale bar=100 μm. […] Data are represented as mean±SD.
smiles,measurement,setting,value
"Cc1cccc(-c2n[nH]cc2-c2ccc3ncccc3n2)n1 [RepSox, RepSox (SJN 2511)]",effectiveness at promoting MYH11 expression among validated hits,"[1]; hits validated, concentration optimized",most effective
same,promotes MYH11+ SMC differentiation (increased MYH11 promoter-driven luciferase activity),"[1]; small molecules added day 4-14, selected when normalized reads > average+3×STDEV",promotes MYH11^+ SMC differentiation
same,improvement of MYH11 expression (RT-qPCR),[2],23 fold
same,contractile gene expression of AoSMCs,[3]; 100 μM RepSox for three days versus DMSO,increase
same,proliferation rate of AoSMCs,[3]; 100 μM RepSox for two days versus DMSO,reduced
same,contraction ability of AoSMCs,"[3]; 100 μM RepSox for two days, then 100 μM carbachol",without affecting
same,cell migration rate of AoSMCs,[3]; 100 μM RepSox versus DMSO,reduced
